These results are taken from patent publication US7101878B1 (Agouron Pharmaceuticals, Inc., priority 1998, dated 2006).

In one assay the target is T1, mouse GnRH receptor (Mus musculus, UniProt Q01776).
T1 construct: expressed in transfected cells; host or cells: 293 cells
T1 sequence (Q01776 1-327): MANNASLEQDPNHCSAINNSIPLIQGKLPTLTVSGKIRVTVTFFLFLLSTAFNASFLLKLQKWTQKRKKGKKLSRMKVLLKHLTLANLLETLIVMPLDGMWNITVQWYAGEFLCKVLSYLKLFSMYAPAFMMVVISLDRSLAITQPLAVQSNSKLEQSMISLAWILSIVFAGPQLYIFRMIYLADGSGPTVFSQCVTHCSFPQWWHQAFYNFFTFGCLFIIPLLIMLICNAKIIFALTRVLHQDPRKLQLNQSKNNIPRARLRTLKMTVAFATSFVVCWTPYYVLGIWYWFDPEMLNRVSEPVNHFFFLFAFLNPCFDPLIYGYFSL
The assay is described as follows: Radioligand binding, 125I-GnRH-A, 293 cells expressing mouse GnRH receptors. Particulars: 10 uM; read-out: % Inhib. @ 10 uM mGnRH. In a few lines:
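Bound label captured on 0.1% polyethyleneimine-treated GF/C filters, washed three times with PBS, counted. IC50 derived; identical set-up for every species.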
On to `Cc1cc2c(cc1Cc1ccc(C(=O)NC(C)CO)o1)C(C)(C)CCC2(C)C` (stereo not drawn) [drawing 1241], for which the inhibition at 10 µM was 82%.

`CCCCN(CCCC)CCCNC(=O)c1ccc(Cc2cc3c(cc2C)C(C)(C)CCC3(C)C)o1` [drawing 1242]: the inhibition at 10 µM stood at 103%. On the same count and under the same terms, the value for `Cc1cc2c(cc1Cc1ccc(C(=O)NC3CCN(Cc4ccccc4)C3)o1)C(C)(C)CCC2(C)C` (stereo not drawn) [drawing 1243] was 101%; that for `CCN(CC)CCCNC(=O)c1ccc(Cc2cc3c(cc2C)C(C)(C)CCC3(C)C)o1` [drawing 1244] was 100%; that for `Cc1cc2c(cc1Cc1ccc(C(=O)N3CCC(n4c(=O)[nH]c5ccccc54)CC3)o1)C(C)(C)CCC2(C)C` [drawing 1246] was 80%. Still for that read-out and setting: the value for `Cc1cc2c(cc1Cc1ccc(C(=O)N3CCN(CCOCCO)CC3)o1)C(C)(C)CCC2(C)C` [drawing 1252] was 63%; that for `COc1cc2c(cc1OC)CN(C(=O)c1ccc(Cc3cc4c(cc3C)C(C)(C)CCC4(C)C)o1)CC2` [drawing 1253] was 46%; that for `Cc1cc2c(cc1Cc1ccc(C(=O)N(CCCN(C)C)CCCN(C)C)o1)C(C)(C)CCC2(C)C` [drawing 1254] was 71%. On the same count and under the same terms, the same measure for `Cc1cc2c(cc1Cc1ccc(C(=O)N(CCN(C)C)Cc3ccccc3)o1)C(C)(C)CCC2(C)C` [drawing 1255]: 104%. With `Cc1cc2c(cc1Cc1ccc(C(=O)N3CCN(C(=O)c4ccco4)CC3)o1)C(C)(C)CCC2(C)C` [drawing 1264], the inhibition at 10 µM turned out to be 89%. Same read-out and setting: the value for `Cc1cc2c(cc1Cc1ccc(C(=O)N3CCN(C4CCCCC4)CC3)o1)C(C)(C)CCC2(C)C` [drawing 1265] was 102%; that for `COCCCNC(=O)c1ccc(Cc2cc3c(cc2C)C(C)(C)CCC3(C)C)o1` [drawing 1268] was 101%; that for `Cc1cc2c(cc1Cc1ccc(C(=O)NCC(F)(F)F)o1)C(C)(C)CCC2(C)C` [drawing 1271] was 26%.

In the case of `CCCNC(=O)c1ccc(Cc2cc3c(cc2C)C(C)(C)CCC3(C)C)o1` [drawing 1274], the inhibition at 10 µM amounted to 93%. On the same count and under the same terms, the value for `CCCCN(C(=O)c1ccc(Cc2cc3c(cc2C)C(C)(C)CCC3(C)C)o1)C(C)c1ccccc1` (stereo not drawn) [drawing 1275] was 65%; that for `Cc1ccc(N2CCN(C(=O)c3ccc(Cc4cc5c(cc4C)C(C)(C)CCC5(C)C)o3)CC2C)cc1` (stereo not drawn) [drawing 1276] was 73%; that for `Cc1cc2c(cc1Cc1ccc(C(=O)N(Cc3cccnc3)Cc3cccn3C)o1)C(C)(C)CCC2(C)C` [drawing 1285] was 100%. Consider `Cc1cc2c(cc1Cc1ccc(C(=O)N(Cc3cccnc3)Cc3ccccc3F)o1)C(C)(C)CCC2(C)C` [drawing 1287], for which the inhibition at 10 µM was determined as 95%. Still for that read-out and setting: the same measure for `CCOC(CN(CCc1ccccc1)C(=O)c1ccc(Cc2cc3c(cc2C)C(C)(C)CCC3(C)C)o1)OCC` [drawing 1296]: 66%; for `CCCN(CCc1ccccn1)C(=O)c1ccc(Cc2cc3c(cc2C)C(C)(C)CCC3(C)C)o1` [drawing 1297]: 100%; for `COC(=O)C1CCCN1C(=O)c1ccc(Cc2cc3c(cc2C)C(C)(C)CCC3(C)C)o1` (stereo not drawn) [drawing 1298]: 97%. On to `Cc1cc2c(cc1Cc1ccc(C(=O)NCC3CCCCC3)o1)C(C)(C)CCC2(C)C` [drawing 1302], for which the inhibition at 10 µM came out at 72%.

The assay is the same for the next values; noted with them: 1 h, substrate remaining; 10 uM compound; closer to zero = closer to 100% inhibition; read-out: S%R 10 uM mGnRHR.
Regarding `Cc1cc2c(cc1Cc1ccc(C(=O)NCCC(C)O)o1)C(C)(C)CCC2(C)C` (stereo not drawn) [Compound 671], the remaining activity at 10 µM was 12%.

Regarding `Cc1cc2c(cc1Cc1ccc(C(=O)N(CCC#N)CCC#N)o1)C(C)(C)CCC2(C)C` [Compound 672], the remaining activity at 10 µM worked out at 23%. On the same count and under the same terms, the same measure for `CCCC(CO)NC(=O)c1ccc(Cc2cc3c(cc2C)C(C)(C)CCC3(C)C)o1` (stereo not drawn) [Compound 673]: 2%.

In the case of `COc1ccccc1CN(C(=O)c1ccc(Cc2cc3c(cc2C)C(C)(C)CCC3(C)C)o1)C1CCN(Cc2ccccc2)C1` (stereo not drawn) [Compound 674], the remaining activity at 10 µM came to 10%. The same measure, in the same setting: the same measure for `CSCCC(CO)NC(=O)c1ccc(Cc2cc3c(cc2C)C(C)(C)CCC3(C)C)o1` (stereo not drawn) [Compound 675]: -5%.

Consider `Cc1cc2c(cc1Cc1ccc(C(=O)NCCC3OCCO3)o1)C(C)(C)CCC2(C)C` [Compound 676], for which the remaining activity at 10 µM was -4%. On the same count and under the same terms, the value for `Cc1cc2c(cc1Cc1ccc(C(=O)N3CCc4ccccc4C3Cc3ccccc3)o1)C(C)(C)CCC2(C)C` (stereo not drawn) [Compound 677] was 54%; that for `Cc1cc2c(cc1Cc1ccc(C(=O)NCCc3c[nH]c4ccc(O)cc34)o1)C(C)(C)CCC2(C)C` [Compound 678] was 17%; that for `CCC(O)CNC(=O)c1ccc(Cc2cc3c(cc2C)C(C)(C)CCC3(C)C)o1` (stereo not drawn) [Compound 679] was 1%. Turning to `CCCCN(C)C(=O)c1ccc(Cc2cc3c(cc2C)C(C)(C)CCC3(C)C)o1` [Compound 680], the remaining activity at 10 µM was found to be 0%. Regarding `Cc1cc2c(cc1Cc1ccc(C(=O)N(Cc3ccco3)C3CCN(Cc4ccccc4)C3)o1)C(C)(C)CCC2(C)C` (stereo not drawn) [Compound 681], the remaining activity at 10 µM was found to be 6%.

Consider `Cc1cc2c(cc1Cc1ccc(C(=O)NCc3cccc(NC(=O)NC(Cc4ccccc4)c4ccccc4)c3)o1)C(C)(C)CCC2(C)C` (stereo not drawn) [Compound 682], for which the remaining activity at 10 µM was 59%. Same read-out and setting: the value for `CC[C@H](C)C(CO)NC(=O)c1ccc(Cc2cc3c(cc2C)C(C)(C)CCC3(C)C)o1` (stereo partly drawn) [Compound 683] was 23%.

Regarding `CCOC(=O)CCNC(=O)c1ccc(Cc2cc3c(cc2C)C(C)(C)CCC3(C)C)o1` [Compound 684], the remaining activity at 10 µM was 2%. In the case of `Cc1cc2c(cc1Cc1ccc(C(=O)NC(C)CO)o1)C(C)(C)CCC2(C)C` (stereo not drawn) [Compound 685], the remaining activity at 10 µM came out at 19%. The same measure, in the same setting: the same measure for `Cc1cc2c(cc1Cc1ccc(C(=O)N3CCN(CCOCCO)CC3)o1)C(C)(C)CCC2(C)C` [Compound 686]: 37%; for `CCCNC(=O)c1ccc(Cc2cc3c(cc2C)C(C)(C)CCC3(C)C)o1` [Compound 687]: 7%. Same read-out and setting: the value for `Cc1cc2c(cc1Cc1ccc(C(=O)N(Cc3cccnc3)Cc3cccn3C)o1)C(C)(C)CCC2(C)C` [Compound 688] was 0%.

Turning to `CCOC(CN(CCc1ccccc1)C(=O)c1ccc(Cc2cc3c(cc2C)C(C)(C)CCC3(C)C)o1)OCC` [Compound 689], the remaining activity at 10 µM is 34%. Same read-out and setting: the same measure for `COc1cccc(CN(Cc2cccc(Oc3cccc(C(F)(F)F)c3)c2)C(=O)c2ccc(Cc3cc4c(cc3C)C(C)(C)CCC4(C)C)o2)c1OC` [Compound 690]: 25%; for `Cc1cc2c(cc1Cc1ccc(C(=O)N(Cc3cccnc3)CC3CC=CCC3)o1)C(C)(C)CCC2(C)C` (stereo not drawn) [Compound 691]: 7%. The same measure, in the same setting: the value for `CCCCN(CCCC)CCCNC(=O)c1ccc(Cc2cc3c(cc2C)C(C)(C)CCC3(C)C)o1` [Compound 692] was -2%. For `COc1cc2c(cc1OC)CN(C(=O)c1ccc(Cc3cc4c(cc3C)C(C)(C)CCC4(C)C)o1)CC2` [Compound 693], the remaining activity at 10 µM worked out at 55%. On the same count and under the same terms, the same measure for `Cc1cc2c(cc1Cc1ccc(C(=O)N3CCN(C(=O)c4ccco4)CC3)o1)C(C)(C)CCC2(C)C` [Compound 694]: 11%. Consider `CCCCN(C(=O)c1ccc(Cc2cc3c(cc2C)C(C)(C)CCC3(C)C)o1)C(C)c1ccccc1` (stereo not drawn) [Compound 695], for which the remaining activity at 10 µM is 35%. Same read-out and setting: the value for `Cc1cc2c(cc1Cc1ccc(C(=O)N(Cc3ccccc3)Cc3ccc(Cl)c(Cl)c3)o1)C(C)(C)CCC2(C)C` [Compound 696] was 21%; that for `CCCN(CCc1ccccn1)C(=O)c1ccc(Cc2cc3c(cc2C)C(C)(C)CCC3(C)C)o1` [Compound 697] was 1%; that for `Cc1cc2c(cc1Cc1ccc(C(=O)N3CCC(CNC(=O)C(F)(F)F)CC3)o1)C(C)(C)CCC2(C)C` [Compound 698] was 59%. Same read-out and setting: the value for `Cc1cc2c(cc1Cc1ccc(C(=O)NC3CCN(Cc4ccccc4)C3)o1)C(C)(C)CCC2(C)C` (stereo not drawn) [Compound 699] was -1%; that for `Cc1cc2c(cc1Cc1ccc(C(=O)N(CCCN(C)C)CCCN(C)C)o1)C(C)(C)CCC2(C)C` [Compound 700] was 30%; that for `Cc1cc2c(cc1Cc1ccc(C(=O)N3CCN(C4CCCCC4)CC3)o1)C(C)(C)CCC2(C)C` [Compound 701] was -1%.

Consider `Cc1ccc(N2CCN(C(=O)c3ccc(Cc4cc5c(cc4C)C(C)(C)CCC5(C)C)o3)CC2C)cc1` (stereo not drawn) [Compound 702], for which the remaining activity at 10 µM was 28%.

`Cc1cc2c(cc1Cc1ccc(C(=O)N(Cc3cccnc3)Cc3ccccc3F)o1)C(C)(C)CCC2(C)C` [Compound 703]: the remaining activity at 10 µM was 5%. With `COC(=O)C1CCCN1C(=O)c1ccc(Cc2cc3c(cc2C)C(C)(C)CCC3(C)C)o1` (stereo not drawn) [Compound 704], the remaining activity at 10 µM came out at 4%. As for `Cc1cc2c(cc1Cc1ccc(C(=O)N(CCC#N)Cc3ccco3)o1)C(C)(C)CCC2(C)C` [Compound 705], the remaining activity at 10 µM came out at 23%.

With `Cc1cc2c(cc1Cc1ccc(C(=O)NC(CO)CC(C)C)o1)C(C)(C)CCC2(C)C` (stereo not drawn) [Compound 706], the remaining activity at 10 µM was 3%. The same measure, in the same setting: the value for `CCN(CC)CCCNC(=O)c1ccc(Cc2cc3c(cc2C)C(C)(C)CCC3(C)C)o1` [Compound 707] was 0%. Regarding `Cc1cc2c(cc1Cc1ccc(C(=O)N(CCN(C)C)Cc3ccccc3)o1)C(C)(C)CCC2(C)C` [Compound 708], the remaining activity at 10 µM is -4%.
